In patent US10059741B2 (priority 2015, dated 2018):
“And” between values parts separate entries of the source, which are not always exact repeats. Equal entries are not always repeated. Where two headings read alike, the source gives them in different places. Bridge positions count the residues as written; N and C are the ends. Square brackets hold non-standard residues; d marks the D form. Peptide text beside a SMILES is read from it. S5 = C=CCCC[C@](C)(N)C(=O)O; Nle = CCCC[C@H](N)C(=O)O; Aib = CC(C)(N)C(=O)O

Columns and labels:
H1N1 California/07/2009 [1] = assay: microbe, parasite or virus in culture; type: cell-based, influenza A virus
H3N2 Perth/16/2009 [2] = assay: microbe, parasite or virus in culture; type: cell-based, influenza A virus
H1N1 California/07/2009 [3] = assay: microbe, parasite or virus in culture; type: cell-based, influenza A virus; remark: listed apart in the source
H3N2 Perth/16/2009 [4] = assay: microbe, parasite or virus in culture; type: cell-based, influenza A virus; remark: listed apart in the source
[5] = test system: H1N1 A/Solomon Island/03/2006; type: cell-based, influenza A virus; conditions: Influenza A H1N1 A/Solomon Is./3/2006-M; Drug Assay Neutral Red; read-out: EC50
[6] = test system: H5N1 A/Hong Kong/213/2003; assay: microbe, parasite or virus in culture; type: cell-based, influenza A virus
H7N9 A/Anhui/1/2013 = assay: microbe, parasite or virus in culture; type: cell-based, influenza A virus
[7] = test system: influenza virus, various viral strains; assay: organism not typed; type: cell-based
in vitro = conditions: dog
H1N1 A/Brisbane/59/2007 = assay: Cytopathic effect (CPE) inhibition in MDCK cells, neutral red; type: cell-based, influenza A virus
H5N1 A/Duck/MN/1525/81 = assay: microbe, parasite or virus in culture; type: cell-based, influenza A virus; conditions: Influenza A H5N1 Duck/MN/1525/81, Neutral Red
[8] = test system: Influenza B Florida/04/2006; assay: Cytopathic effect (CPE) inhibition in MDCK cells, neutral red; type: cell-based; conditions: Influenza B virus, MDCK; Influenza B Florida/04/2006; Neutral Red; read-out: EC50
[9] = test system: Influenza B Brisbane/60/2008; assay: as above; type: cell-based; conditions: Influenza B virus, MDCK; Influenza B Brisbane/60/2008; Neutral Red; read-out: EC50
[10] = test system: influenza virus, various viral strains; assay: Influenza antiviral evaluation assay (CPE, neutral red dye uptake) in MDCK cells against various viral strains (Tables 8, 9); type: cell-based
[11] = test system: Influenza A H3N2 Influenza A/Brisbane/10/2007; assay: microbe, parasite or virus in culture; type: cell-based, influenza A virus; conditions: Influenza A virus, H3N2, MDCK
[12] = test system: Influenza A H1N1 Influenza A/California/7/2009; assay: microbe, parasite or virus in culture; type: cell-based, influenza A virus; conditions: Influenza A virus, H1N1, MDCK
[13] = test system: Influenza B/Brisbane/60/2008; assay: microbe, parasite or virus in culture; type: cell-based; conditions: Influenza B virus, MDCK; Influenza B Influenza B/Brisbane/60/2008; CellTiter-Glo
[14] = test system: Influenza A H1N1 Influenza A/Texas/4/2009; assay: microbe, parasite or virus in culture; type: cell-based, influenza A virus; conditions: Influenza A virus, H1N1, MDCK
[15] = test system: Madin Darby canine kidney (MDCK) cells
[16] = Influenza A virus, H1N1, MDCK, read-out: EC50 (μM) H1N1 California/07/2009
[17] = Influenza A virus, H3N2, MDCK, read-out: EC50 (μM) H3N2 Perth/16/2009
[18] = MDCK, Influenza A H5N1 Duck/MN/1525/81, Visual

Question: With `CCCC[C@H](NC(C)=O)C(=O)N[C@@H](CC(=O)O)C(=O)N[C@H](C(=O)N[C@@H](CC(N)=O)C(=O)N[C@@]1(C)CCCC=CCCC[C@@](C)(C(=O)N[C@@H](CC(C)C)C(=O)N[C@@H](C)C(=O)N[C@H](C(=O)N[C@@H](CCC(N)=O)C(=O)NC(C)(C)C(=O)N[C@@H](C)C(=O)N[C@@H](C)C(=O)N[C@@H](C)C(N)=O)C(C)C)NC(=O)[C@H](CC(C)C)NC(=O)[C@H](CC(C)C)NC(=O)[C@H]([C@@H](C)O)NC1=O)C(C)C` [SP-21] (Ac-[Nle]DVN[S5]TLL[S5]LAVQ[Aib]AAA-NH2; staple 5-9) as the compound, how does the EC50 (H1N1 California/07/2009 [1]; Cytopathic effect/toxicity (Visual), MDCK cells, read-out: EC50 (μM) H1N1 California/07/2009) read?
Answer: < 1.5 µM

Question: What about the EC50 (H1N1 California/07/2009 [1]; Influenza A H1N1 California/07/2009, Drug Assay Visual, read-out: EC50) of the same compound?
Answer: 1.3 µM

Question: And the EC50 (H3N2 Perth/16/2009 [2]; Cytopathic effect/toxicity (Visual), MDCK cells, read-out: EC50 (μM) H3N2 Perth/16/2009)?
Answer: < 1.5 µM

Question: And the EC50 (H3N2 Perth/16/2009 [2]; Influenza A H3N2 Perth/16/2006 (so in the source), Drug Assay Visual, read-out: EC50)?
Answer: 0.54 µM

Question: What about the EC50 (H1N1 California/07/2009 [3]; Cytopathic effect/toxicity (Neutral red), MDCK cells, read-out: EC50 (μM) H1N1 California/07/2009) of the same compound?
Answer: 1.5 to 10 µM

Question: What about the EC50 (H1N1 California/07/2009 [3]; Influenza A H1N1 California/07/20/09 (so in the source), later run, Drug Assay Neutral Red, read-out: EC50) of the same compound?
Answer: 21 µM

Question: What about the EC90 (H1N1 California/07/2009 [3]; Influenza A H1N1 California/07/20/09 (so in the source), Drug Assay Visual/Neutral Red) of the same compound?
Answer: 9.6 µM

Question: What about the EC50 (H1N1 California/07/2009 [3]; Influenza A H1N1 California/07/2009, Drug Assay Neutral Red, read-out: EC50) of the same compound?
Answer: 4.6 µM

Question: What about the EC50 (H3N2 Perth/16/2009 [4]; Cytopathic effect/toxicity (Neutral red), MDCK cells, read-out: EC50 (μM) H3N2 Perth/16/2009) of the same compound?
Answer: 1.5 to 10 µM

Question: And the EC50 (H3N2 Perth/16/2009 [4]; Influenza A H3N2 Perth/16/2006 (so in the source), Drug Assay Neutral Red, read-out: EC50)?
Answer: 2.1 µM

Question: What about the EC50 (H3N2 Perth/16/2009 [4]; Influenza A H3N2 Perth/16/2009, last run, Drug Assay Neutral Red, read-out: EC50) of the same compound?
Answer: 4.8 µM

Question: What about the EC90 (H3N2 Perth/16/2009 [4]; Influenza A H3N2 Perth/16/2009, Drug Assay Visual/Neutral Red) of the same compound?
Answer: 8 µM

Question: And the EC50 [5]?
Answer: 5.3 µM

Question: And the EC50 ([6]; read-out: EC50)?
Answer: 39 µM

Question: What about the EC50 (H7N9 A/Anhui/1/2013; read-out: EC50) of the same compound?
Answer: 17 µM

Question: And the EC50 ([7]; Influenza A H1N1 A/Solomon Is./3/2006-M, Drug Assay Visual, read-out: EC50)?
Answer: 4.8 µM

Question: And the CC50 (in vitro; CC50)?
Answer: > 50 µM

Question: And the CC50 (in vitro; CC50 (μM) H1N1 California/07/2009, Cell cytotoxicity (CC), run with H1N1 California/07/2009)?
Answer: > 100 µM

Question: What about the CC50 (in vitro; CC50 (μM) H3N2 Perth/16/2009, Cell cytotoxicity (CC), run with H3N2 Perth/16/2009) of the same compound?
Answer: > 100 µM

Question: And the CC50 (in vitro; CC50, run with Influenza A H1N1 A/Solomon Is./3/2006-M, Neutral Red)?
Answer: > 100 µM

Question: And the CC50 (in vitro; CC50, run with Influenza A H1N1 A/Solomon Is./3/2006-M, Visual)?
Answer: > 100 µM

Question: And the CC50 (in vitro; CC50, run with Influenza A H1N1 California/07/20/09 (so in the source), later run, Neutral Red)?
Answer: > 100 µM

Question: What about the CC50 (in vitro; CC50, run with Influenza A H1N1 California/07/20/09 (so in the source), Visual/Neutral Red) of the same compound?
Answer: > 100 µM

Question: And the CC50 (in vitro; CC50, run with Influenza A H1N1 California/07/2009, Neutral Red)?
Answer: > 100 µM

Question: What about the CC50 (in vitro; CC50, run with Influenza A H1N1 California/07/2009, Visual) of the same compound?
Answer: > 100 µM

Question: What about the CC50 (in vitro; CC50, run with Influenza A H3N2 Perth/16/2006 (so in the source), Neutral Red) of the same compound?
Answer: > 100 µM

Question: What about the CC50 (in vitro; CC50, run with Influenza A H3N2 Perth/16/2006 (so in the source), Visual) of the same compound?
Answer: > 100 µM

Question: What about the CC50 (in vitro; CC50, run with Influenza A H3N2 Perth/16/2009, last run, Neutral Red) of the same compound?
Answer: > 100 µM

Question: What about the CC50 (in vitro; CC50, run with Influenza A H3N2 Perth/16/2009, Visual/Neutral Red) of the same compound?
Answer: > 100 µM

Question: What does the source list for `NC(=O)c1ncn([C@@H]2O[C@H](CO)[C@@H](O)[C@H]2O)n1` [Ribavirin, reference compound]?
Answer: EC90 (H1N1 California/07/2009 [1]; Influenza A virus, H1N1, MDCK): 5.5 µM; EC50 (H1N1 California/07/2009 [1]; [16]): 1.5 to 10 µM; EC50 (H3N2 Perth/16/2009 [2]; [17]): 1.5 to 10 µM; EC50 (H1N1 California/07/2009 [3]): 8.5 µM and 6.8 µM and 10 µM; EC50 (H1N1 California/07/2009 [3]; [16]): 10 to 25 µM; EC50 (H3N2 Perth/16/2009 [4]; [17]): 10 to 25 µM; EC50 (H1N1 A/Brisbane/59/2007): 5.6 µM; EC50 (H1N1 A/Brisbane/59/2007; Influenza A virus, H1N1, MDCK): 7.2 µM; EC50 (H5N1 A/Duck/MN/1525/81): 5.6 µM; EC50 (H5N1 A/Duck/MN/1525/81; Influenza A virus, H5N1, MDCK): 9.6 µM; EC50 ([6]; Influenza A virus, H5N1, MDCK, Influenza A H5N1 A/Hong Kong/213/2003, Drug Assay Neutral Red): 3.6 µM; EC50 ([6]; Influenza A virus, H5N1, MDCK, Influenza A H5N1 Hong Kong/213/2003, Neutral Red): 39 µM; EC50 (H7N9 A/Anhui/1/2013; Influenza A virus, H7N9, MDCK, Influenza A H7H9 A/Anhui/1/2013, Neutral Red): 18 µM; EC50 (H7N9 A/Anhui/1/2013; Influenza A virus, H7N9, MDCK, Influenza A H7N9 A/Anhui/1/2013, Drug Assay Neutral Red): 3 µM; EC50 [8]: 4.8 µM; EC50 [9]: 5.6 µM; EC90 [7]: 4.1 µM; EC90 ([7]; MDCK): 5.2 µM; EC50 ([7]; MDCK, Influenza A H1N1 A/Solomon Is./3/2006-M, Drug Assay Visual): 10 µM; EC50 ([7]; MDCK, Influenza A H1N1 California/04/2009-M, Visual): 10 µM; EC50 ([7]; MDCK, Influenza A H1N1 Solomon Is./3/2006-M, Visual): 10 µM; EC50 ([7]; MDCK, Influenza A H3N2 Victoria/3/75-M, Visual): 10 µM; EC50 ([7]; MDCK, Influenza A H5N1 A/Hong Kong/213/2003, Drug Assay Visual): 4.2 µM; EC50 [7, 18]: 10 µM; EC90 [7, 18]: 9 µM; EC50 ([7]; MDCK, Influenza A H5N1 Hong Kong/213/2003, Visual): 43 µM; EC50 ([7]; MDCK, Influenza A H7N9 A/Anhui/1/2013, Drug Assay Visual): 3.2 µM; EC50 ([7]; MDCK, Influenza B Sichuan/379/99-M, Visual): 10 µM; EC50 [10]: 9.3 µM and 9.6 µM and 8.9 µM; EC50 ([10]; MDCK): 9.8 µM; EC50 [11]: 2.81 µM; EC90 [11]: 11.8 µM; EC50 [12]: 6.53 µM; EC90 [12]: 16.2 µM; EC50 [13]: 66.2 µM; EC90 [13]: > 100 µM; EC50 [14]: 14.6 µM; EC90 [14]: > 100 µM; CC50 ([15]; MDCK cells, run with Influenza A H5N1 Duck/MN/1525/81, Neutral Red): > 320 µM; CC50 ([15]; MDCK cells, run with Influenza A H5N1 Duck/MN/1525/81, Visual): > 320 µM; CC50 ([15]; MDCK cells, run with Influenza A H5N1 Hong Kong/213/2003, Neutral Red): > 1000 µM; CC50 ([15]; MDCK cells, run with Influenza A H5N1 Hong Kong/213/2003, Visual): > 1000 µM; CC50 ([15]; run with Influenza A H5N1 A/Hong Kong/213/2003, Neutral Red): > 1000 µM; CC50 ([15]; run with Influenza A H5N1 A/Hong Kong/213/2003, Visual): > 1000 µM; CC50 ([15]; run with Influenza A H7N9 A/Anhui/1/2013, Neutral Red): > 1000 µM; CC50 ([15]; run with Influenza A H7N9 A/Anhui/1/2013, Visual): > 1000 µM; CC50 (in vitro; CC50 (μM) H1N1 California/07/2009): > 100 µM; CC50 (in vitro; CC50 (μM) H3N2 Perth/16/2009): > 100 µM
